Converted amounts (≈) assume the structure as drawn. Where two headings read alike, the source gives them in different places.
Columns and labels:
[1] = test system: S. aureus ATCC 106414 (VISA); test: MIC, microdilution method (9.1); type: cell-based, Staphylococcus aureus; conditions: read after 18 h
Outline: (§1)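 Using CLSI M07-A8 broth microdilution, MH broth, 37° C. in air; inoculum 5×10^5 CFU/ml; drug range 0.50-128 mg/L final.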

[2] = test system: S. aureus CIP 65.25 (MRSA); test: MIC, microdilution method (9.1); type: cell-based, Staphylococcus aureus; conditions: read after 18 h
Outline: as §1

S. aureus SA-1199B = test: MIC, microdilution method (9.1); type: cell-based, Staphylococcus aureus
Outline: as §1

S. aureus ATCC 29213 = test: MIC, microdilution method (9.1); type: cell-based, Staphylococcus aureus
Outline: as §1

[3] = test system: S. aureus ATCC 33592 (MRSA); test: MIC, microdilution method (9.1); type: cell-based, Staphylococcus aureus; conditions: read after 18 h
Outline: as §1

S. aureus CIP 65.6 = test: MIC, microdilution method (9.1); type: cell-based, Staphylococcus aureus
Outline: as §1

S. aureus ATCC 9144 = test: MIC, microdilution method (9.1); type: cell-based, Staphylococcus aureus
Outline: as §1

S. aureus ATCC 25923 = test: MIC, microdilution method (9.1); type: cell-based, Staphylococcus aureus
Outline: as §1

S. aureus ATCC 6538 = test: MIC, microdilution method (9.1); type: cell-based, Staphylococcus aureus
Outline: as §1

S. aureus CIP 103428 = test: MIC, microdilution method (9.1); type: cell-based, Staphylococcus aureus
Outline: as §1

[4] = test system: S. epidermidis ATCC 12228; test: MIC, microdilution method (9.1); type: cell-based, Staphylococcus epidermidis
Outline: as §1

[5] = test system: S. epidermidis CIP 103627; test: MIC, microdilution method (9.1); type: cell-based, Staphylococcus epidermidis
Outline: as §1

S. epidermidis CIP 81.55 = test: MIC, microdilution method (9.1); type: cell-based, Staphylococcus epidermidis
Outline: as §1

[6] = test system: MRC5 (human lung fibroblast); test: In vitro cytotoxicity; type: cell-based; conditions: read-out: % of cellular growth inhibition; for inhibition at 10 µM: 10^−5 M; for inhibition at 1 µM: 10^−6 M
Procedure: (§2) In vitro cytotoxicity was assayed on three cell lines—KB (human mouth carcinoma), MCR5 (human lung fibroblast) and HCT116 (human colon tumor). Results are presented in table IV as % of cellular growth inhibition in presence of 10^−5 M and 10^−6 M of the tested bis-indolic derivatives.

[7] = test system: KB (human mouth carcinoma); test: In vitro cytotoxicity; type: cell-based; conditions: read-out: % of cellular growth inhibition; for inhibition at 10 µM: 10^−5 M; for inhibition at 1 µM: 10^−6 M
Procedure: as §2

[8] = test system: HCT116 (human colon tumor); test: In vitro cytotoxicity; type: cell-based; conditions: read-out: % of cellular growth inhibition; for inhibition at 10 µM: HCT-116, 10^−5 M; for inhibition at 1 µM: HCT-116, 10^−6 M
Procedure: as §2

S. pneumoniae ATCC 6303 = test: MIC, microdilution method (9.1); type: cell-based, Streptococcus pneumoniae; conditions: 10% sheep blood, 5% CO2, 18 h
Procedure: (§3) The microdilution method recommended by the Clinical and Laboratory Standard Institute [M07-A8, Vol. 29, No. 2] was used. The activity of indolic compounds was tested against 29 bacterial strains belonging to 17 different species and 12 different genera (Staphylococcus, Streptococcus, Enterococcus, Listeria, Bacillus, Haemophilus, Escherichia, Klebsiella, Enterobacter, Serratia, Pseudomonas, and Acinetobacter). Bacterial inocula were prepared in Mueller Hinton broth (MH2, bioMérieux, Marcy L'Etoile, France), supplemented with 10% sheep blood for fastidious species (i.e., Streptococcus pneumoniae and Haemophilus influenzae). They were dispensed in 96 well microtiter plates (5×10^5 CFU/ml of final inoculum). Indolic compounds were added to the wells as to obtain two-fold serial concentrations (0.50-128 mg/L of final concentrations). Plates were incubated at 37° C. in ambient air, or at 37° C. in 5% CO2 enriched atmosphere for fastidious species. […] Drug-free cultures served as growth controls. Cultures receiving gentamicin, ciprofloxacin or cefotaxime served as positive controls.

E. faecium CIP 54.32 = test: MIC, microdilution method (9.1); type: cell-based, Enterococcus faecium; conditions: 18 h
Procedure: as §3

[9] = test system: S. pyogenes (group A) CIP 104226; test: MIC, microdilution method (9.1); type: cell-based, Streptococcus pyogenes; conditions: 18 h
Procedure: as §3

S. mitis CIP 103335 = test: MIC, microdilution method (9.1); type: cell-based, Streptococcus mitis; conditions: 18 h
Procedure: as §3

[10] = test system: 29 bacterial strains belonging to 17 different species; test: MIC determination, overall statements on the bacterial panel; type: cell-based; conditions: summary of MIC results
Procedure: as §3

[11] = test system: Pseudomonas aeruginosa CIP 5933; test: MIC, microdilution method (9.1); type: cell-based; conditions: 18 h
Procedure: as §3

[12] = test system: Klebsiella pneumoniae API ATCC 35657; test: MIC, microdilution method (9.1); type: cell-based; conditions: 18 h
Procedure: as §3

[13] = test system: Bacillus subtilis CIP 5262; test: MIC, microdilution method (9.1); type: cell-based; conditions: 18 h
Procedure: as §3

[14] = test system: Acinetobacter baumanii ATCC 19606; test: MIC, microdilution method (9.1); type: cell-based; conditions: 18 h
Procedure: as §3

[15] = test system: Listeria innocua CIP 80.11; test: MIC, microdilution method (9.1); type: cell-based; conditions: 18 h
Procedure: as §3

[16] = test system: S. agalactiae (group B) ATCC 12400; test: MIC, microdilution method (9.1); type: cell-based, Streptococcus agalactiae; conditions: 18 h
Procedure: as §3

E. faecalis ATCC 29212 = test: MIC, microdilution method (9.1); type: cell-based, Enterococcus faecalis; conditions: 18 h
Procedure: as §3

[17] = Staphylococcus aureus, read-out: MIC
[18] = Staphylococcus aureus, SA1199B, 18 h
[19] = Staphylococcus aureus, ATCC29213, read after 18 h, read-out: MIC
[20] = Staphylococcus aureus, CIP65, read after 18 h, read-out: MIC
[21] = Staphylococcus aureus, ATCC9144, read after 18 h, read-out: MIC
[22] = Staphylococcus aureus, ATCC25923, read after 18 h, read-out: MIC
[23] = Staphylococcus aureus, ATCC6538, read after 18 h, read-out: MIC
[24] = Staphylococcus aureus, CIP103428, read after 18 h, read-out: MIC
[25] = Staphylococcus epidermidis, ATCC12228, read after 18 h, read-out: MIC
[26] = Staphylococcus epidermidis, CIP103627, read after 18 h, read-out: MIC
[27] = Staphylococcus epidermidis, CIP81, read after 18 h, read-out: MIC

Molecule: COC(=O)C(NC(=O)c1c[nH]c2ccc(Br)cc12)c1c[nH]c2ccc(Br)cc12 (centres unmarked) [Compound 11, Methyl 2-(5-bromo-1H-indol-3-yl)-2-(5-bromo-1H-indole-3-carboxamido)acetate]
- MIC [1, 17]: 4 µg/mL (≈ 7.92 µM)
- MIC [2, 17]: 4 µg/mL (≈ 7.92 µM)
- MIC (S. aureus SA-1199B; [18]): 4 µg/mL (≈ 7.92 µM)
- MIC (S. aureus ATCC 29213; [19]): 4 µg/mL (≈ 7.92 µM)
- MIC [3, 17]: 4 µg/mL (≈ 7.92 µM)
- MIC (S. aureus CIP 65.6; [20]): 4 µg/mL (≈ 7.92 µM)
- MIC (S. aureus ATCC 9144; [21]): 4 µg/mL (≈ 7.92 µM)
- MIC (S. aureus ATCC 25923; [22]): 4 µg/mL (≈ 7.92 µM)
- MIC (S. aureus ATCC 6538; [23]): 4 µg/mL (≈ 7.92 µM)
- MIC (S. aureus CIP 103428; [24]): 4 µg/mL (≈ 7.92 µM)
- MIC [4, 25]: 4 µg/mL (≈ 7.92 µM)
- MIC [5, 26]: 4 µg/mL (≈ 7.92 µM)
- MIC (S. epidermidis CIP 81.55; [27]): 4 µg/mL (≈ 7.92 µM)
- inhibition at 10 µM [6]: 28 ± 9%
- inhibition at 1 µM [6]: 0%
- inhibition at 10 µM [7]: 51 ± 1%
- inhibition at 1 µM [7]: 0%
- inhibition at 10 µM [8]: 51 ± 5%
- inhibition at 1 µM [8]: 0%
- melting point: 126 °C

Molecule: O=C(NC(CO)c1c[nH]c2ccc(Br)cc12)c1c[nH]c2ccc(Br)cc12 (centres unmarked) [Compound 13, 5-Bromo-N-(1-(5-bromo-1H-indol-3-yl)-2-hydroxyethyl)-1H-indole-3-carboxamide]
- MIC [1, 17]: 4 µg/mL (≈ 8.38 µM)
- MIC [2, 17]: 4 µg/mL (≈ 8.38 µM)
- MIC (S. aureus SA-1199B; [18]): 8 µg/mL (≈ 16.8 µM)
- MIC (S. aureus ATCC 29213; [19]): 4 µg/mL (≈ 8.38 µM)
- MIC [3, 17]: 4 µg/mL (≈ 8.38 µM)
- MIC (S. aureus CIP 65.6; [20]): 4 µg/mL (≈ 8.38 µM)
- MIC (S. aureus ATCC 9144; [21]): 4 µg/mL (≈ 8.38 µM)
- MIC (S. aureus ATCC 25923; [22]): 4 µg/mL (≈ 8.38 µM)
- MIC (S. aureus ATCC 6538; [23]): 4 µg/mL (≈ 8.38 µM)
- MIC (S. aureus CIP 103428; [24]): 4 µg/mL (≈ 8.38 µM)
- MIC [4, 25]: 4 µg/mL (≈ 8.38 µM)
- MIC [5, 26]: 4 µg/mL (≈ 8.38 µM)
- MIC (S. epidermidis CIP 81.55; [27]): 4 µg/mL (≈ 8.38 µM)
- inhibition at 10 µM [6]: 6 ± 1%
- inhibition at 1 µM [6]: 0%
- inhibition at 10 µM [7]: 1 ± 4%
- inhibition at 1 µM [7]: 0%
- inhibition at 10 µM [8]: 12 ± 5%
- inhibition at 1 µM [8]: 0%
- melting point: 155 °C

Molecule: tert-Butyl (2-(p-bromo)benzamido-2-(5-bromo-1H-indol-3-yl)ethyl)carbamate [Compound 8a]
- MIC [1]: >32 µg/mL
- MIC [2]: >32 µg/mL
- MIC (S. aureus SA-1199B; S. aureus SA-1199B, read after 18 h): >32 µg/mL
- MIC (S. aureus ATCC 29213; read after 18 h): >32 µg/mL
- MIC [3]: >32 µg/mL
- MIC (S. aureus CIP 65.6; read after 18 h): >32 µg/mL
- MIC (S. aureus ATCC 9144; read after 18 h): >32 µg/mL
- MIC (S. aureus ATCC 25923; read after 18 h): >128(>32) mg/L
- MIC (S. aureus ATCC 6538; read after 18 h): >32 µg/mL
- MIC (S. aureus CIP 103428; read after 18 h): >32 µg/mL
- MIC ([4]; read after 18 h): >32 µg/mL
- MIC ([5]; read after 18 h): >32 µg/mL
- MIC (S. epidermidis CIP 81.55; read after 18 h): >32 µg/mL
- MIC (S. pneumoniae ATCC 6303): 128 µg/mL
- MIC (E. faecium CIP 54.32): >128 µg/mL
- MIC [9]: >128 µg/mL
- MIC (S. mitis CIP 103335): >128 µg/mL
- intrinsic antibacterial activity (in words) [10]: lack of intrinsic antibacterial activity
- MIC [11]: >128(>32) mg/L
- MIC [12]: 64 µg/mL
- MIC [13]: >128 µg/mL
- MIC [14]: >128(>32) mg/L
- MIC [15]: >128 µg/mL
- MIC [16]: 64 µg/mL
- MIC (E. faecalis ATCC 29212): >128 µg/mL

— US9676715B2, “Bis-indolic derivatives, a process for preparing the same and their uses as a drug” (UNIVERSITE JOSEPH FOURIER, priority 2011, dated 2017)
